Test results reported in patent publication US11986471B2, “Compounds and methods of use” (Tango Therapeutics, Inc., priority 2018, dated 2024).

Columns and labels:
PRMT5 [1] = target: T1, PRMT5 (Homo sapiens, UniProt O14744); test: PRMT5 IC50 assay in the presence of SAM as cofactor; type: biochemical
T1 construct: purchased Viva (custom protein)
Procedure, shortened: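 IC50 values were measured against human PRMT5 with SAM, with MTA, or with no cofactor. Ki was derived from IC50 as Ki=IC50/1.5 with SAM and Ki=IC50/13.5 with MTA, and the Ki(SAM)/Ki(MTA) ratio was then taken.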

PRMT5 [2] = target: T1, PRMT5; test: PRMT5 IC50 assay in the presence of MTA as cofactor; type: biochemical; conditions: for IC50: PRMT5, MTA as cofactor
Procedure, shortened: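 IC50 against PRMT5 determined with SAM as cofactor, with no cofactor, and with MTA as cofactor. Ki derived as IC50/1.5 for the SAM assay and IC50/13.5 for the MTA assay; SAM Ki to MTA Ki ratio also reported.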

PRMT5 [3] = target: T1, PRMT5; test: PRMT5 IC50 assay with no cofactor; type: biochemical
Procedure, shortened: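 Cofactor-free, SAM and MTA formats; IC50 μM; Ki = IC50/1.5 for SAM, IC50/13.5 for MTA.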

HAP1 MTAP-deleted = test: SDMA in-cell western assay, HAP1 MTAP-deleted cell line; type: cell-based; conditions: for IC50: Homo sapiens, HAP1 MTAP-deleted cell line; for MTAP Intact/Deleted Ratio: IC50 ratio HAP1 MTAP-intact / HAP1 MTAP-deleted
Procedure, shortened: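 Symmetric dimethylarginine (SDMA) levels were measured by in-cell western in MTAP-null HAP1 cells, one half of an MTAP-isogenic pair whose partner line expresses endogenous MTAP. Compound potency is reported as IC50.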

HAP1 MTAP-intact = test: SDMA in-cell western assay, HAP1 MTAP-intact cell line; type: cell-based; conditions: Homo sapiens
Procedure, shortened: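 Symmetric dimethylarginine (SDMA) levels were measured by in-cell western in an isogenic HAP1 pair, one expressing endogenous MTAP and one MTAP-null, and IC50 values were derived for each line. Compounds whose IC50 ratio between the lines is 3-fold or more are classed as MTAP-selective.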

[4] = ratio between the Ki in the presence of SAM and the Ki in the presence of MTA

T1 sequence (O14744 whole entry): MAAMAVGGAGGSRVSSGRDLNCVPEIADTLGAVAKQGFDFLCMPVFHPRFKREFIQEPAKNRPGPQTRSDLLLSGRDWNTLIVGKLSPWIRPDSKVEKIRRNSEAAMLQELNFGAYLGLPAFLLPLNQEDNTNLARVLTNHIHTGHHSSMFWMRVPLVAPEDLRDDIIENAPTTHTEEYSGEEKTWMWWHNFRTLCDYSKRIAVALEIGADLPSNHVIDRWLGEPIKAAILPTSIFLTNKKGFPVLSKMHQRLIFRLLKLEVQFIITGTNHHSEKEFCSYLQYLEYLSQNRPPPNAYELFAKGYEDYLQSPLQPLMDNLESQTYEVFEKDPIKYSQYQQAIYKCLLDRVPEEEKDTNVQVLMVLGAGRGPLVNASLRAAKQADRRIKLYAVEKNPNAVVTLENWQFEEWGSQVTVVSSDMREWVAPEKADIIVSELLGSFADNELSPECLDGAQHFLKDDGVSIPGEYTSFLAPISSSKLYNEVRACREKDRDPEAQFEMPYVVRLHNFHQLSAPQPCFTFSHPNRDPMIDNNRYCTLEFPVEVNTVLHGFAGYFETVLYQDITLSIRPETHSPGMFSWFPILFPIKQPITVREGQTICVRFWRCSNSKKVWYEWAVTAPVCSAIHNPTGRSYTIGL
T1 sequence (Q9BQA1 whole entry partner): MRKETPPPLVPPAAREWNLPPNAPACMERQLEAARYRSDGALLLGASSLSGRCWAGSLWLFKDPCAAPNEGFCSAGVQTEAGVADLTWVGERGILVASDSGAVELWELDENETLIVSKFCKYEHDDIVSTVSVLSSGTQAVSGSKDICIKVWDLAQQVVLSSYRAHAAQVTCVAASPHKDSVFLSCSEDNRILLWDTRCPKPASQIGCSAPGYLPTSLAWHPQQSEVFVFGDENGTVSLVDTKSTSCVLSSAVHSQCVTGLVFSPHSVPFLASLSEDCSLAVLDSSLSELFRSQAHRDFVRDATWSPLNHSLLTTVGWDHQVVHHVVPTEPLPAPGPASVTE

SMILES	IC50 (PRMT5 [1]) [nM]	IC50 (PRMT5 [2]) [nM]	SAM/MTA Ratio (PRMT5 [2]; ratio between Ki in the presence of SAM and Ki in the presence of MTA)	IC50 (PRMT5 [3]; read-out: No Co-factor IC50) [nM]	IC50 (HAP1 MTAP-deleted) [nM]	MTAP Intact/Deleted Ratio (HAP1 MTAP-deleted)	IC50 (HAP1 MTAP-intact) [nM]	SAM/MTA Ratio (PRMT5 [2]; [4])	IC50 (PRMT5 [3]) [nM]
CC(=O)N1CC(Nc2cc(C(=O)NC[C@H](O)CN3CCc4cc(OCc5cnco5)ccc4C3)nc(C(C)(C)C)n2)C1 [Compound 379, (S)-6-((1-acetylazetidin-3-yl)amino)-2-(tert-butyl)-N-(2-hydroxy-3-(6-(oxazol-5-ylmethoxy)-3,4-dihydroisoquinolin-2(1H)-yl)propyl)pyrimidine-4-carboxamide]	50 to 500	50 to 500	A (a Ki ratio greater than or equal to 10 fold between the Ki in the presence of SAM and the Ki in the presence of MTA)	500 to 5000	< 1000	C* (an IC50 ratio of less than 3 fold between the IC50 in the HAP1 MTAP-intact cell line and the HAP1 MTAP-deleted cell line)	< 1000		
O=C(NC[C@H](O)CN1CCc2c(ccc(OCc3cnco3)c2Cl)C1)c1cc(NC2CCC2)nc(N2CCNCC2)c1 [Compound 464, (S)—N-(3-(5-chloro-6-(oxazol-5-ylmethoxy)-3,4-dihydroisoquinolin-2(1H)-yl)-2-hydroxypropyl)-2-(cyclobutylamino)-6-(piperazin-1-yl)isonicotinamide]	50 to 500	50 to 500			≥ 10000	C* (an IC50 ratio of less than 3 fold between the IC50 in the HAP1 MTAP-intact cell line and the HAP1 MTAP-deleted cell line)	≥ 10000	A (a Ki ratio greater than or equal to 10 fold between the Ki in the presence of SAM and the Ki in the presence of MTA)	500 to 5000
Cc1ncoc1COc1ccc2c(c1C)CCN(C[C@@H](O)CNC(=O)c1cc(NC3CCC3)nc(N3CCN(C(C)C)CC3)c1)C2 [Compound 539, 2-(cyclobutylamino)-N-[(2S)-2-hydroxy-3-{5-methyl-6-[(4-methyl-1,3-oxazol-5-yl)methoxy]-1,2,3,4-tetrahydroisoquinolin-2-yl}propyl]-6-[4-(propan-2-yl)piperazin-1-yl]pyridine-4-carboxamide]	50 to 500	50 to 500			≥ 10000	C* (an IC50 ratio of less than 3 fold between the IC50 in the HAP1 MTAP-intact cell line and the HAP1 MTAP-deleted cell line)	≥ 10000	A (a Ki ratio greater than or equal to 10 fold between the Ki in the presence of SAM and the Ki in the presence of MTA)	500 to 5000
O=C(NC[C@H](O)CN1CCc2cc(OCc3cnco3)ccc2C1)c1ccnc(NC2CN(C(=O)C3CCC3)C2)c1 [Compound 468, 2-[[1-(cyclobutanecarbonyl)azetidin-3-yl]amino]-N-[(2S)-2-hydroxy-3-[6-(oxazol-5-ylmethoxy)-3,4-dihydro-1H-isoquinolin-2-yl]propyl]pyridine-4-carboxamide]	50 to 500	50 to 500			1000 to 10000	B* (an IC50 ratio greater than or equal to 3 fold but lower than 10 fold between the IC50 in the HAP1 MTAP-intact cell line and the HAP1 MTAP-deleted cell line)	1000 to 10000	A (a Ki ratio greater than or equal to 10 fold between the Ki in the presence of SAM and the Ki in the presence of MTA)	500 to 5000
COc1cnc(NC2CCC2)cc1C(=O)NC[C@H](O)CN1CCc2cc(OCc3ocnc3C)ccc2C1 [Compound 602]	50 to 500	50 to 500			1000 to 10000	C* (an IC50 ratio of less than 3 fold between the IC50 in the HAP1 MTAP-intact cell line and the HAP1 MTAP-deleted cell line)	1000 to 10000	A (a Ki ratio greater than or equal to 10 fold between the Ki in the presence of SAM and the Ki in the presence of MTA)	500 to 5000
